Laboratory results as given in paper PMC11743413 (Bioresources and Bioprocessing, 2025).

Molecular target: T1, SerE (Corynebacterium glutamicum, UniProt Q8NSR3)
T1 construct: gene Cgl0605
Settings: L-proline released from Pro-Gly in the cells; acid-ninhydrin assay

T1 sequence (Q8NSR3 1-307): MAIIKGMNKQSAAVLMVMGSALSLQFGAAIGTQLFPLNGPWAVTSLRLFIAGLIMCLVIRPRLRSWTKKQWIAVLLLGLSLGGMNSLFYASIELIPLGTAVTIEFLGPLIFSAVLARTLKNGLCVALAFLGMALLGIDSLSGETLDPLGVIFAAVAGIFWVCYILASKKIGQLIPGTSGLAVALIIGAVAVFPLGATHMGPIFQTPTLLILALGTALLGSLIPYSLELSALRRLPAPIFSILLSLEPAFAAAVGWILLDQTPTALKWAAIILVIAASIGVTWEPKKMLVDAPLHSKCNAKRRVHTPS

O=C(O)[C@@H]1CCCN1 [L-proline]
amino acid export assay after Pro-Gly dipeptide addition; serE deletion versus o: SerE is indeed as an L-proline exporter
